Test results from paper PMC6321058, “Crystal Structures and Cytotoxicity of ent-Kaurane-Type Diterpenoids from Two Aspilia Species” (Molecules, 2018).

Key:
[1] = MTT cytotoxicity assay, LO2; format: cell-based; conditions: human, normal cell line LO2, MTT, 0.19–100 μM
Experimental: (§1) Reagent and cells. Adenocarcinomic human alveolar basal epithelial (A549) and human hepatoma (HepG2) cancer cell lines, immortalized normal human liver (LO2), human bronchial epithelial (BEAS-2B), and fibroblast-like CCD19Lu cells were purchased from [NT], Manassas, VA, USA). The cells were cultured in RPMI-1640 medium supplemented with 10% fetal bovine serum and antibiotics: Penicillin (50 U/Ml) and streptomycin (50 μg/mL; Invitrogen, Paisley, Scotland, UK). All cells were incubated at 37 °C in a 5% humidified CO2 incubator). All test compounds were dissolved in DMSO at a final concentration of 50 mM and stored at -20 °C before use. […] Briefly, 5 × 10^3 cells per well were seeded in 96-well plates before drug treatments. […] Cells without drug treatment were used as controls. Subsequently, 10 μL of 5 mg/mL MTT solution was added to each well and incubated at 37 °C for 4 h, followed by the addition of 100 μL solubilization buffer (12 mM HCl in a solution of 10% SDS) and overnight incubation. The absorbance, A570 nm, was then determined in each well on the next day. The percentage cell viability was calculated using the expression: % Viability = Atreated/ Acontrol × 100, and was given as cytotoxicity in Table 3.

[2] = MTT cytotoxicity assay, BEAS-2B; format: cell-based; conditions: human, normal cell line BEAS-2B, 0.19–100 μM
Experimental: as §1

[3] = MTT cytotoxicity assay, A549; format: cell-based; conditions: human, cancer cell line A549, MTT, 0.19–100 μM
Experimental: as §1

[4] = MTT cytotoxicity assay, Hep-G2; format: cell-based; conditions: human, cancer cell line Hep-G2, MTT, 0.19–100 μM
Experimental: as §1

[5] = LO2 cells (immortalized normal human liver)
[6] = BEAS-2B cells (human bronchial epithelial)

Structure (SMILES)	IC50 at 72 h [1, 5] [µM]	IC50 at 72 h [2, 6] [µM]	IC50 at 72 h [3] [µM]	IC50 at 72 h ([4]; HepG2 cells (human hepatoma)) [µM]	IC50 at 72 h [1] [µM]	IC50 at 72 h [2] [µM]	melting point [°C]	IC50 at 72 h [4] [µM]
C=C1CC23CCC4C(C)(C(=O)OC)CCCC4(C)C2CCC1C3 (stereo not drawn) [Compound 10, methyl-ent-kaur-16-en-19-oate]	> 100	> 100	> 100	> 100				
C=C1CC23CCC4C(C)(C(=O)O)CCCC4(C)C2=CC(OC)C1C3 (stereo not drawn) [Compound 1, 12α-methoxy-ent-kaur-9(11),16-dien-19-oic acid]			> 100		> 100	> 100	184 to 186	27.3 ± 1.9
C=C1C2CCC3C4(C)CCCC(C)(C(=O)OC)C4CCC3(C2)C1OC(=O)C(C)=CC (stereo not drawn) [Compound 17, methyl-15α-angeloyloxy-ent-kaur-16-en-19-oate]	> 100	> 100	> 100	> 100				
CC(=O)O[C@H]1C(=O)[C@@]2(C)[C@H]([C@H](OC(=O)c3ccccc3)[C@]3(O)C[C@H](OC(=O)[C@H](O)[C@@H](NC(=O)c4ccccc4)c4ccccc4)C(C)=C1C3(C)C)[C@]1(OC(C)=O)CO[C@@H]1C[C@@H]2O [Paclitaxel, reference compound]	< 0.1	< 0.1	0.0033	0.19				
C[C@@]12CCC[C@@](C)(C(=O)O)[C@H]1CC[C@@]13C[C@@H](CC[C@H]12)[C@](C)(O)C3 [Compound 2, (16R)-hydroxy-ent-kauran-19-oic acid]			> 100		> 100	> 100		> 100
C[C@@H]1C[C@@]23CC[C@@H]4[C@](C)(C(=O)O)CCC[C@@]4(C)C2=CC[C@@H]1C3 [Compound 6b, ent-kaur-9(11)-en-19-oic acid]	> 100	> 100	> 100	> 100				
C=C1CC23CCC4C(C)(C(=O)O)CCCC4(C)C2=CC(=O)C1C3 (stereo not drawn) [Compound 18, 12-oxo-ent-kaur-9(11),16-dien-19-oic acid]			80.5 ± 1.8		30 ± 1.7	38.6 ± 2.5		81.3 ± 0.3
C=C1C2CCC3(O)C4(C)CCCC(C)(C(=O)O)C4CCC3(C2)C1OC(=O)C(C)=CC (stereo not drawn) [Compound 3, 9β-hydroxy-15α-angeloyloxy-ent-kaur-16-en-19-oic acid]	57.2 ± 1.2	89.9 ± 2	> 100	24.7 ± 2.8				
CO[C@@]1(C)C[C@@]23CC[C@@H]4[C@](C)(C(=O)O)CCC[C@@]4(C)C2=CC[C@@H]1C3 [Compound 6a]	> 100	> 100	> 100	> 100				
C=C1C[C@@]23CC[C@@H]4C(C)(C)CCC[C@@]4(C)C2=CC(=O)C1C3 [Compound 9, ent-kaur-9(11),16-dien-12-one]	75.3 ± 2.8	> 100	> 100	> 100				
C=C1C2CCC3C4(C)CCCC(C)(C(=O)O)C4CCC3(C2)C1OC(=O)C(C)=CC (stereo not drawn) [Compound 7, 15α-angeloyloxy-ent-kaur-16-en-19-oic acid]	> 100	> 100	> 100	> 100				
C=C1C2CCC3(O)C4(C)CCCC(C)(C(=O)OC)C4CCC3(C2)C1OC(=O)C(C)=CC (stereo not drawn) [Compound 4, methyl-9β-hydroxy-15α-angeloyloxy-ent-kaur-16-en-19-oate]	> 100	> 100	> 100	> 100				
CC[C@H](/C=C/[C@@H](C)[C@H]1CC[C@H]2[C@@H]3CC=C4C[C@@H](O)CC[C@]4(C)[C@H]3CC[C@]12C)C(C)C [Compound 14, stigmasta-5,22(E)-dien-3β-ol]			> 100		> 100	> 100		> 100
CC=C(C)C(=O)OC1C23CCC4C(C)(C(=O)O)CCCC4(C)C2CCC(C3)C12CO2 (stereo not drawn) [Compound 5, 15α-angeloyloxy-16β,17-epoxy-ent-kauran-19-oic acid]	> 100	> 100	30.7 ± 1.7	> 100			242 to 243	
C=C1C[C@@]23CC[C@@H]4[C@](C)(C(=O)O)CCC[C@@]4(C)C2=CC[C@@H]1C3 [Compound 6, ent-kaur-9(11),16-dien-19-oic acid]			> 100		> 100	> 100		> 100
C=C1CC23CCC4C(C)(C(=O)O)CCCC4(C)C2CCC1C3 (stereo not drawn) [Compound 11, ent-kaur-16-en-19-oic acid]	> 100	> 100	> 100	> 100				
